From patent US10882865B2, “Pyrrolopyrimidine compounds and uses thereof for modulating glucocerebrosidase activity” (Northwestern University, priority 2018, dated 2021) come the findings set out here.

The AC50 is the concentration at which the activity in the assay is half-maximal. A word on the Emax: it is the greatest response seen or fitted, relative to the assay's reference.

For this experiment, the target named is T1, glucocerebrosidase (GCase) (Homo sapiens, UniProt P04062).
T1 sequence (P04062 40-536): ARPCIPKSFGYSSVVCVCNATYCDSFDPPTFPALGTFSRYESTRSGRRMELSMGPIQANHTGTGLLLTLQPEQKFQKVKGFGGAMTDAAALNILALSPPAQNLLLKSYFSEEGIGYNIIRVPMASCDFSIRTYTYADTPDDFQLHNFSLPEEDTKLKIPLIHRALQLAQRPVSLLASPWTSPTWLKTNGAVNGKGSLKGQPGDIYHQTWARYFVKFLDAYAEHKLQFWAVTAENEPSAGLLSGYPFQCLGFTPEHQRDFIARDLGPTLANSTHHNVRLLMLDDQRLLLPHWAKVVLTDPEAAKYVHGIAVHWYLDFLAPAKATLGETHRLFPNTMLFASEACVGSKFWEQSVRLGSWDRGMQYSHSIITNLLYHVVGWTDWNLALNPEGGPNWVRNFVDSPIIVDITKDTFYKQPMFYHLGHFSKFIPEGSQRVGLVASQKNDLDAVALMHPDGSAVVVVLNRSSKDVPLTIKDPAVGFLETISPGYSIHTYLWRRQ
The experiment can be described thus: Glucocerebrosidase activation (Table 1, Exemplary Compounds and Activities). As to conditions: activation of glucocerebrosidase; for Emax: read-out: Maximum Activation (Emax). Type of experiment: biochemical. From the text: The compounds disclosed herein preferably modulate activity of glucocerebrosidase. Modulation may include inhibiting or decreasing glucocerebrosidase activity. Modulation also may include activating or increasing glucocerebrosidase activity. Glucocerebrosidase activity may be assessed utilizing methods known in the art and the methods disclosed herein, including the methods disclosed in the Examples provided herein. In some embodiments, the compounds decrease or increase glucocerebrosidase activity relative to a control (e.g., by at least about 10%, 20%, 30%, 40%, 50%, 60%, 70%, 80%, 90%, 100%, 200%, 300%, 400%, 500%, 600%, 700%, 800%, 900%, 1000% or more (or within a range bounded by any of these values)). In other embodiments, the compounds activate glucocerebrosidase greater than about 2-fold, 3-fold, 4-fold, 5-fold, 10-fold, 20-fold, 30-fold, 40-fold, 50-fold, 60-fold, 70-fold, 80-fold, 90-fold, or 100-fold, relative to a control. […] In other embodiments, an AC50 value for the compound in regard to activation of glucocerebrosidase may be determined and preferably the compound has an AC50 value of less than about 10 μM, 5 μM, or 1 μM, 0.5 μM, 0.1 μM, 0.05 μM, 0.01 μM, 0.005 μM, or 0.001 μM (or within a range bounded by any of these values).
Methods for measuring glucocerebrosidase activity are known in the art. (See, e.g., U.S. Publication No. 2017/0001976 and U.S. Publication No. 2017/0002013 and Zheng et al. “Design and Synthesis of Potent Quinazolines as Selective β-Glucocerebrosidase Modulators, J. Med. Chem. 2016 September 22; 59(18): 8508-8520; the contents of which are incorporated herein by reference in their entireties).
The disclosed pyrrolopyrimidine compounds were synthesized and tested using the methods described below. Additional methods for synthesizing and testing pyrrolopyrimidine compounds are described in the art. (See, e.g., Zheng et al., β-Glucocerebrosidase Modulators Promote Dimerization of β-Glucocerebrosidase and Reveal an Allosteric Binding Site, J. Am. Chem. Soc., 2018, 140 (18), pp 5914-5924; and U.S. Pat. No. 9,802,942; the contents of which are incorporated herein by reference in their entireties).

As for `Cc1cc(C)n2ccc(C(=O)Nc3ccccc3Oc3ccccc3)c2n1` [compound 35], the concentration at half-maximal activity (AC50) amounted to 2.24 µM and the maximal response (Emax) was found to be 298%.

`Cc1cc(C)n2ccc(C(=O)Nc3cccc(C(C)C)c3)c2n1` [compound 9]: half-maximal activity (AC50) was put at 2.23 µM and the Emax is 280%.

With `CCOC(=O)c1cccc(NC(=O)c2ccn3c(C)cc(C)nc23)c1` [compound 4], the AC50 amounted to 1.18 µM and the Emax came out at 400%.

Regarding `Cc1cc(C)n2ccc(C(=O)Nc3nc4c(s3)CC(C)(C)CC4)c2n1` [compound 46], the activity was half-maximal at 1.12 µM (AC50) and the Emax came out at 230%.

On to `COC(=O)Cc1cccc(NC(=O)c2ccn3c(C)cc(C)nc23)c1` [compound 1], for which the AC50 was 6.59 µM and the maximum response (Emax) was found to be 450%.

Regarding `Cc1cc(C)n2ccc(C(=O)Nc3cccc(CCC(=O)O)c3)c2n1` [compound 37], the concentration at half-maximal activity (AC50) worked out at 8.91 µM and the maximal effect (Emax) stood at 427%.

Take `Cc1cc(C)n2ccc(C(=O)Nc3cccc(CC(=O)Oc4ccc([N+](=O)[O-])cc4)c3)c2n1` [compound 51]: the AC50 stood at 10 µM and the Emax is 172%.

Regarding `Cc1cc(C)n2ccc(C(=O)NCC3COc4ccccc4O3)c2n1` (stereo not drawn) [compound 23], the half-maximal activity concentration (AC50) came out at 28.2 µM and the maximal effect (Emax) stood at 644%.

Consider `CCOC(=O)Cc1cc(NC(=O)c2ccn3c(C)cc(C)nc23)ccc1CCCOCCOCCOCCOCCNC(=O)C1CCCCC1` [compound 48], for which half-maximal activity (AC50) was put at 3.16 µM and the Emax came to 796%.

With `Cc1cc(C)n2ccc(C(=O)Nc3cccc(CC(=O)Oc4ccccc4)c3)c2n1` [compound 50], the AC50 was 4.47 µM and the maximal effect (Emax) was 230%.

For `Cc1cc(C)n2ccc(C(=O)Nc3cccc(Oc4ccccc4)c3)c2n1` [compound 36], the half-maximal activity concentration (AC50) came to 1.42 µM and the Emax was determined as 280%.

For the molecule `Cc1cc(C)n2ccc(C(=O)Nc3ccc(CCC(=O)ON4C(=O)CCC4=O)cc3)c2n1` [compound 27], the AC50 was determined as 2.82 µM and the Emax was 620%.

As for `Cc1cc(C)n2ccc(C(=O)Nc3ccc4c(c3)CCCC4)c2n1` [compound 24], half-maximal activity (AC50) was put at 3.55 µM and the maximal effect (Emax) worked out at 527%.

With `Cc1cc(C)n2ccc(C(=O)Nc3cccc(C(=O)ON4C(=O)CCC4=O)c3)c2n1` [compound 6], the activity was half-maximal at 4.59 µM (AC50) and the maximal response (Emax) stood at 460%.

Consider `Cc1cc(C)n2ccc(C(=O)Nc3cccc4c3CCC4)c2n1` [compound 10], for which half-maximal activity (AC50) was put at 0.77 µM and the maximal response (Emax) amounted to 202%.

As for `Cc1cc(C)n2ccc(C(=O)Nc3ccc(CCC(=O)O)cc3)c2n1` [compound 15], the AC50 was found to be 36.6 µM and the Emax turned out to be 700%.

Regarding `Cc1cc(C)n2ccc(C(=O)Nc3cccc(-c4ccccc4)c3)c2n1` [compound 43], the AC50 was determined as 1.41 µM and the Emax worked out at 296%.

`COC(=O)Cc1cc(NC(=O)c2ccn3c(C)cc(-c4cccnc4)nc23)ccc1-c1cn(CCOCCOCCO)nn1` [compound 40] displayed an AC50 of 4.47 µM.

In the case of `Cc1cc(C)n2ccc(C(=O)Nc3ccc(CC(=O)ON4C(=O)CCC4=O)cc3)c2n1` [compound 29], the concentration at half-maximal activity (AC50) is 4.47 µM and the maximum response (Emax) was 374%.

`Cc1cc(C)n2ccc(C(=O)Nc3ccc4c(c3)C(=O)CCC4)c2n1` [compound 17]: half-maximal activity (AC50) was put at 3.88 µM and the Emax amounted to 750%.

In the case of `Cc1cc(C)n2ccc(C(=O)Nc3ccc4c(c3)CCO4)c2n1` [compound 30], the AC50 came out at 1.12 µM and the maximum response (Emax) was 198%.

Consider `Cc1cc(C)n2ccc(C(=O)Nc3ccc4c(c3)CCCC4=O)c2n1` [compound 31], for which half-maximal activity (AC50) was put at 1 µM and the Emax was found to be 355%.

As for `COC(=O)CCc1ccc(NC(=O)c2ccn3c(C)cc(C)nc23)cc1` [compound 13], the activity was half-maximal at 0.63 µM (AC50) and the Emax turned out to be 180%.
